Assay results as given in ChEMBL document CHEMBL1255498, “Moxifloxacin pharmacokinetics/pharmacodynamics and optimal dose and susceptibility breakpoint identification for treatment of disseminated Mycobacterium avium infection” (Antimicrob Agents Chemother, 2010).
≈ marks a conversion by molar mass, not a printed value.

Tests used:
[1] = Antimicrobial activity against Mycobacterium avium subsp. hominissuis ATCC 700898 infected in human THP1 cells in presence of 10% FBS; format: functional, cell-based; details: ATCC 700898, THP-1
[2] = microbe, parasite or virus in culture; details: Mycobacterium avium, ATCC 700898, 168 h
[3] = Antimicrobial activity against Mycobacterium avium subsp. hominissuis ATCC 700898 infected in human THP1 cells in presence of 20% FBS; format: functional, cell-based; details: ATCC 700898, THP-1
[4] = microbe, parasite or virus in culture; details: Mycobacterium avium, ATCC 700898
[5] = Antimicrobial activity against Mycobacterium avium subsp. hominissuis ATCC 700898 infected in human THP1 cells in presence of 2% FBS; format: functional, cell-based; details: ATCC 700898, THP-1
Mycobacterium avium = experiment: Antimicrobial activity against Mycobacterium avium by CLSI method
[6] = microbe, parasite or virus in culture; details: Mycobacterium avium, ATCC 700898, 168 h; remark: listed apart in the source

## COc1c(N2C[C@@H]3CCCN[C@@H]3C2)c(F)cc2c(=O)c(C(=O)O)cn(C3CC3)c12 [MOXIFLOXACIN]
[1]
  EC50: 5.07 mg/L
[2]
  EC50: ≥ 32 mg/L
[3]
  EC50: 5.21 mg/L
[4]
  MIC: 1 mg/L (≈ 2.49 µM)
[5]
  EC50: 8.09 mg/L
Mycobacterium avium
  MIC: 1 mg/L (≈ 2.49 µM)
[6]
  EC50: 8.24 mg/L (≈ 20.5 µM)
